Source: patent publication US5786486A, “Acrylamide derivatives and process for production thereof” (Kyorin Pharmaceutical Co., Ltd., priority 1994, dated 1998)
≈ marks a conversion by molar mass, not a printed value.

Columns and labels:
HeLa S3 cells = assay: HeLa Cell Growth Inhibition Activity (HeLa S3, MTT); assay type: cell-based; conditions: Homo sapiens, 72 hours exposure
Description: HeLa Cell Growth Inhibition Activity:
HeLa S3 cells were maintained as a monolayer culture in Eagle's minimal medium (Nissui Seiyaku K. K., Tokyo) containing […] glutamine, 100 μg/mL of kanamycin sulfate, and 10% inactivated fetal calt serum at 37° C. in a carbon dioxide incubator. The cells 1.8×10^3 were inoculated to a 96-well plate, and were exposed to the test compounds from the next day for 72 hours. Then, the viable cell numbers were measured by evaluating the ability to reduce 3-[4,5-dimethylthiazol-2-yl]-2,5-diphenyltetrazolium bromide (MTT) according to the Mosmann's method (Mosmann,T., J. Imunol. Meth., 65, 55-63, 1983).

Colon 26 cells = assay: Antitumor effect in Colon 26-bearing mice; assay type: in vivo, CDF1 female mice; conditions: for Antitumor activity Colon-26 TGI % (tumor growth inhibition rate): Colon 26-bearing CDF1 mice, single dose via tail vein, tumor weighed one week after; for Chemotherapy index MTD/TGI50: ratio of maximum tolerant dose (mg/kg) to dose giving 50% tumor growth inhibition (mg/kg), colon26-bearing mice
Description: Antitumor effect in Colon 26-bearing mice:
Colon 26 cells 1×10^6 were transplanted into an axillary region of 8-week old CDF1 female mice (Japan SLC Inc., Hamamatsu) subcutaneously. Six days after the transplantation, when the tumor grew palpable, the compound was administered via the tail vein. One week after the administration, the tumor was removed and weighed. The antitumor activity was represented by tumor growth inhibition rate (TGI %=(1--T/C)×100) derived from the ratio (T/C) of the average tumor weight (T) of the compound-administered group to the average tumor weight (C) of the control group.

With `COC(=O)c1c(C(F)(F)F)[nH]c2c(O)cc3c(c12)[C@H](CCl)CN3C(=O)/C=C/c1ccc(/C=C/C(=O)N2C[C@@H](CCl)c3c2cc(O)c2[nH]c(C(F)(F)F)c(C(=O)OC)c32)c2ccccc12` [Example 10, (S,S)-3,3'-[3,3'-(1,4-naphthalenediyl)diacryloyl]-bis[1-chloromethyl-5-hydroxy-7-trifluoromethyl-1,2,3,6-tetrahydropyrrolo[3,2-e]indole-8-methoxycarbonyl]] the IC50 (HeLa S3 cells) was 0.011 ng/mL (≈ 0.0118 nM), the “Antitumor activity Colon-26 TGI % (tumor growth inhibition rate)” value (Colon 26 cells; 0.977 μg/kg) was 85% and the “Chemotherapy index MTD/TGI50” value (Colon 26 cells) was 7.4.

`COC(=O)c1c(C(F)(F)F)[nH]c2c(O)cc3c(c12)[C@H](CCl)CN3C(=O)/C=C/c1ccc(/C=C/C(=O)N2C[C@@H](CCl)c3c2cc(O)c2[nH]c(C(F)(F)F)c(C(=O)OC)c32)c2c(OC)ccc(OC)c12` [Example 3, (S,S)-3,3'-[3,3'-(5,8-dimethoxy-1,4-naphthalenediyl)diacryloyl]-bis[1-chloromethyl-5-hydroxy-7-trifluoromethyl-1,2,3,6-tetrahydropyrrolo [3,2-e]indole-8-methoxycarbonyl]] gave an IC50 (HeLa S3 cells) of 0.00934 ng/mL (≈ 0.00944 nM).

In the case of `COC(=O)c1c(C(F)(F)F)[nH]c2c(O)cc3c(c12)[C@H](CCl)CN3C(=O)/C=C/c1ccc(/C=C/C(=O)N2C[C@@H](CCl)c3c2cc(O)c2[nH]c(C(F)(F)F)c(C(=O)OC)c32)c2c1OCO2` [Example 5, (S,S)-3,3'-[3,3'-(2,3-(methylenedioxy)-1,4-phenylene)diacryloyl]-bis[1-chloromethyl-5-hydroxy-7-trifluoromethyl-1,2,3,6-tetrahydropyrrolo[3,2-e]indole-8-methoxycarbonyl]], the IC50 (HeLa S3 cells) is reported as 0.00595 ng/mL (≈ 0.00644 nM) and the “Antitumor activity Colon-26 TGI % (tumor growth inhibition rate)” value (Colon 26 cells; 1.95 μg/kg) is reported as 90%.

For `COC(=O)c1c(C(F)(F)F)[nH]c2c(O)cc3c(c12)[C@H](CCl)CN3C(=O)/C=C/c1ccc(/C=C/C(=O)N2C[C@@H](CCl)c3c2cc(O)c2[nH]c(C(F)(F)F)c(C(=O)OC)c32)c2c1OCCO2` [Example 4, (S,S)-3,3'-[3,3'-(2,3-(ethylenedioxy)-1,4-phenylene)diacryloyl]-bis[1-chloromethyl-5-hydroxy-7-trifluoromethyl-1,2,3,6-tetrahydropyrrolo [3,2-e]indole-8-methoxycarbonyl]], the IC50 (HeLa S3 cells) was 0.00276 ng/mL (≈ 0.00294 nM), the “Antitumor activity Colon-26 TGI % (tumor growth inhibition rate)” value (Colon 26 cells; 0.488 μg/kg) was 91% and the “Chemotherapy index MTD/TGI50” value (Colon 26 cells) was 9.

With `COC(=O)c1c(C)[nH]c2c(O)cc3c(c12)[C@H](CCl)CN3C(=O)/C=C/c1ccc(/C=C/C(=O)N2C[C@@H](CCl)c3c2cc(O)c2[nH]c(C)c(C(=O)OC)c32)cc1` [Example 18, (S,S)-3,3'-[3,3'-(1,4-phenylene)diacryloyl]-bis[1-chloromethyl-5-hydroxy-7-methyl-1,2,3,6-tetrahydropyrrolo [3,2-e]indole-8-methoxycarbonyl]] the IC50 (HeLa S3 cells) was 0.000459 ng/mL (≈ 0.000595 nM).

In the case of `O=C(/C=C/c1ccc(/C=C/C(=O)N2C[C@@H](CCl)c3c2cc(O)c2[nH]c4ccccc4c32)cc1)N1C[C@@H](CCl)c2c1cc(O)c1[nH]c3ccccc3c21` [Example 20, (S,S)-3,3'-[3,3'-(1,4-phenylene)diacryloyl]-bis[1-chloromethyl-5-hydroxy-1,2-dihydropyrrolo[3,2-a]carbazole]], the IC50 (HeLa S3 cells) is reported as 0.0716 ng/mL (≈ 0.0984 nM).

In the case of `COC(=O)c1c(C(F)(F)F)[nH]c2c(O)cc3c(c12)[C@H](CCl)CN3C(=O)/C=C/c1ccc(-c2ccc(/C=C/C(=O)N3C[C@@H](CCl)c4c3cc(O)c3[nH]c(C(F)(F)F)c(C(=O)OC)c43)cn2)nc1` [Example 13, (S,S)-3,3'-[3,3'-(2,2'-bipyridyl-5,5'-diyl)diacryloyl]-bis[1-chloromethyl-5-hydroxy-7-trifluoromethyl-1,2,3,6-tetrahydropyrrolo [3,2-e]indole-8-methoxycarbonyl]], the IC50 (HeLa S3 cells) is reported as 0.0198 ng/mL (≈ 0.0207 nM), the “Antitumor activity Colon-26 TGI % (tumor growth inhibition rate)” value (Colon 26 cells; 3.91 μg/kg) is reported as 88% and the “Chemotherapy index MTD/TGI50” value (Colon 26 cells) is reported as 3.6.

`COC(=O)c1c(C(F)(F)F)[nH]c2c(O)cc3c(c12)[C@H](CCl)CN3C(=O)/C=C/c1ccc(/C=C/C(=O)N2C[C@@H](CCl)c3c2cc(O)c2[nH]c(C(F)(F)F)c(C(=O)OC)c32)c(OC)c1OC` [Example 8, (S,S)-3,3'-[3,3 '-(2,3-dimethoxy-1,4-phenylene)diacryloyl]-bis[1-chloromethy 1-5-hydroxy-7-trifluoromethyl-1,2,3,6-tetrahydropyrrolo[3,2-e]indole-8-methoxycarbonyl]] was tested, and the IC50 (HeLa S3 cells) was 0.00158 ng/mL (≈ 0.00168 nM), the “Antitumor activity Colon-26 TGI % (tumor growth inhibition rate)” value (Colon 26 cells; 0.977 μg/kg) was 89% and the “Chemotherapy index MTD/TGI50” value (Colon 26 cells) was 4.6.

In the case of `COC(=O)c1c(C(F)(F)F)[nH]c2c(O)cc3c(c12)[C@H](CCl)CN3C(=O)/C=C/c1ccc(/C=C/C(=O)N2C[C@@H](CCl)c3c2cc(O)c2[nH]c(C(F)(F)F)c(C(=O)OC)c32)cc1` [Example 1, (S,S)-3,3'-[3,3'-(1,4-phenylenediacryloyl)]-bis[1-chloromethyl-5-hydroxy-7-trifluoromethyl-1,2,3,6-tetrahydropyrrolo[3,2-e]indole-8-methoxycarbonyl]], the IC50 (HeLa S3 cells) is reported as 0.0031 ng/mL (≈ 0.00352 nM), the “Antitumor activity Colon-26 TGI % (tumor growth inhibition rate)” value (Colon 26 cells; 7.81 μg/kg) is reported as 92% and the “Chemotherapy index MTD/TGI50” value (Colon 26 cells) is reported as 21.9.

For `CCc1c(/C=C/C(=O)N2C[C@@H](CCl)c3c2cc(O)c2[nH]c(C(F)(F)F)c(C(=O)OC)c32)ccc(/C=C/C(=O)N2C[C@@H](CCl)c3c2cc(O)c2[nH]c(C(F)(F)F)c(C(=O)OC)c32)c1CC` [Example 6, (S,S)-3,3'-[3,3'-(2,3-diethyl-1,4-phenylene)diacryloyl]-bis[1-chloromethyl-5-hydroxy-7-trifluoromethyl-1,2,3,6-tetrahydropyrrolo[3,2-e]indole-8-methoxycarbonyl]], the IC50 (HeLa S3 cells) was 0.0318 ng/mL (≈ 0.034 nM).

Compound `Cc1c[nH]c2c(O)cc3c(c12)[C@H](CCl)CN3C(=O)/C=C/c1ccc(/C=C/C(=O)N2C[C@@H](CCl)c3c2cc(O)c2[nH]cc(C)c32)cc1` [Example 19, (S,S)-3,3'-[3,3'-(1,4-phenylene)diacryloy]-bis[1-chloromethyl-5-hydroxy-8-methyl-1,2,3,6-tetrahydropyrrolo[3,2-e]indole]] has an IC50 (HeLa S3 cells) of 0.0134 ng/mL (≈ 0.0204 nM).

Work on `COC(=O)c1c[nH]c2c(O)cc3c(c12)[C@H](CCl)CN3C(=O)/C=C/c1ccc(/C=C/C(=O)N2C[C@@H](CCl)c3c2cc(O)c2[nH]cc(C(=O)OC)c32)cc1` [Example 21, (S,S)-3,3'-[3,3'-(1,4-phenylene)diacryloy]-bis[1-chloromethyl-5-hydroxy-1,2,3,6-tetrahydropyrrolo[3,2-e]indole-8-methoxycarbonyl]] yielded an IC50 (HeLa S3 cells) of 0.00035 ng/mL (≈ 0.000471 nM).

For `COC(=O)c1cc2c3c(cc(O)c2[nH]1)N(C(=O)/C=C/c1ccc(/C=C/C(=O)N2C[C@@H](CCl)c4c2cc(O)c2[nH]c(C(=O)OC)cc42)cc1)C[C@H]3CCl` [Example 22, (S,S)-3,3'-[3,3 '-(1,4-phenylene)diacryloy]-bis[1-chloromethyl-5-hydroxy-1,2,3,6-tetrahydropyrrolo[3,2-e]indole-7-methoxycarbonyl]], the IC50 (HeLa S3 cells) was 0.0227 ng/mL (≈ 0.0305 nM).
